The text below walks through data of ChEMBL document CHEMBL3046531, “Analgesic study of novel pyrimidine derivatives linked with coumarin moiety” (2012).

Holding throughout (assay type): functional
Test [1] deals with Mus musculus. The test can be described thus: Analgesic activity in Mus musculus Swiss albino (mouse) assessed as protection against acetic acid-induced writhing response at 20 mg/kg, po administered 30 min before acetic acid challenge measured at 2 hr after challenge.
The subject of test [2] is Mus musculus. Put plainly: Analgesic activity in Mus musculus Swiss albino (mouse) assessed as protection against acetic acid-induced writhing response at 20 mg/kg, po administered 30 min before acetic acid challenge measured at 1 hr after challenge.
The subject of test [3] is Mus musculus. The test can be described thus: Analgesic activity in Mus musculus Swiss albino (mouse) assessed as protection against acetic acid-induced writhing response at 20 mg/kg, po administered 30 min before acetic acid challenge measured at 0.5 hr after challenge.

Molecules are shown by their SMILES.

As to `Nc1nc(-c2cccc(Cl)c2)cc(-c2cc3ccccc3oc2=O)n1`, the Activity was 56.5% in the test on Mus musculus [1], 60.58% in the test with Mus musculus [2] and 52.21% with Mus musculus [3].
In the same order, the values of `O=C([O-])Cc1ccccc1Nc1c(Cl)cccc1Cl.[Na+]` [DICLOFENAC SODIUM] are 93.35%, 96.76% and 91.13%.
In the same order, the values of `COc1cccc(-c2cc(-c3cc4ccccc4oc3=O)nc(N)n2)c1` are 49.3%, 53.52% and 46.51%.
As to `Nc1nc(-c2ccc(Br)cc2)cc(-c2cc3ccccc3oc2=O)n1`, the Activity is listed as 26.59% in the test with Mus musculus [1], 29.41% in the test with Mus musculus [2] and 28.16% in the test on Mus musculus [3].
The like results for `Nc1nc(-c2cccc(Br)c2)cc(-c2cc3ccccc3oc2=O)n1` were, in that order, 31.57%, 33.52% and 25.94%.
In the case of `Nc1nc(-c2ccc(Cl)cc2)cc(-c2cc3ccccc3oc2=O)n1`, the figures for the Activity in the test with Mus musculus [1], with Mus musculus [2] and with Mus musculus [3] were 10.8%, 12.35% and 9.49%, respectively.
As for `Nc1nc(-c2ccccc2Br)cc(-c2cc3ccccc3oc2=O)n1`, the results for the Activity with Mus musculus [1], in the test with Mus musculus [2] and with Mus musculus [3] were 27.7%, 30.58% and 23.41%, respectively.
In the same order, the values of `COc1ccccc1-c1cc(-c2cc3ccccc3oc2=O)nc(N)n1` are 33.79%, 35.58% and 35.44%.
For the compound `Nc1nc(-c2ccccc2Cl)cc(-c2cc3ccccc3oc2=O)n1`, the Activity in the test with Mus musculus [1] was found to be 11.63%; in the test with Mus musculus [2] it was 12.05%; in the test with Mus musculus [3], 8.22%.
